In paper PMC11421016, “Biotransformation and Epithelial Toxicity of Prenylated Phenolics from Licorice Roots (Glycyrrhiza spp.) in 3D Apical-Out Mucus-Producing Human Enteroids” (Journal of Agricultural and Food Chemistry, 2024):
Read-outs that look alike come from different tables or passages of the source.

What was measured:
Gram-positive bacteria = tested on: Gram-positive bacteria; design: method as in PMID 36377761; conditions: against Gram-positive bacteria, cited from earlier work
[1] = tested on: human ileal apical-out enteroids; conditions: 12.5 μg mL^–1 (34–39 μM), 4 h exposure
Experimental: Effects on barrier integrity of apical-out enteroids after glab, licoA, and glycy exposure were evaluated with a dextran diffusion assay, adapted from Co et al.[14] […] Enteroids were allowed to settle by gravity (5 min) into a pellet, the FITC-dextran 4 kDa was aspirated, and enteroids were washed with DMEM/F12 (3 min, 250g, RT). Enteroids were suspended in fresh DMEM/F12, and they were imaged with an EVOS FL Auto 2 cell imaging system. Images were analyzed using ImageJ software (version 1.52).

[2] = tested on: human ileal apical-out enteroids; assay: Cytotoxicity by LDH leakage assay in apical-out enteroids; assay type: cell-based
Experimental: (§1) Cytotoxicity and effects on cell viability after exposure to glab, licoA, and glycy in apical-out and apical-in enteroids (6.25–500 μg mL^–1) and proliferating Caco-2 cells (3.13–100 μg mL^–1) were determined by LDH leakage (Section 2.6.1) and WST-1 assays (Section 2.6.2), respectively. For this, stock solutions of 50 mg mL^–1 of glab, licoA, and glycy in DMSO were used. […] An overview of the experimental conditions for the exposure experiments with glab, licoA, and glycy is shown in Table S2 (Supporting Information). In brief, apical-out and apical-in enteroids were grown for 7–10 days in OGM (∼200 enteroids per dome), after which the medium was changed to ODM (supplemented with 5 μM DAPT) to initiate enteroid differentiation. To generate apical-out enteroids, MG was removed from apical-in enteroids in OGM at day 7–10, as described in Section 2.3, and suspended in supplemented ODM. After 3 days in ODM, the effects on cytotoxicity and cell viability of glab, licoA, and glycy in apical-out and apical-in enteroids (passages between 3 and 17) were assessed after 4 and 24 h of incubation. For apical-out enteroids in a suspension, enteroids were pelleted by centrifugation (2 min, 200g, RT), after which the ODM was removed and 500 μL of the experimental agent was added. […] Caco-2 cells were grown for 48 h after seeding before experiments (passages 14–19) with proliferating cells and for 21 days after seeding (passages 14–33) with differentiated cells.[17] The medium (DMEM supplemented with FCS) was changed every 2 days. For exposure experiments, Caco-2 cells were incubated with glab, licoA, and glycy in DMEM without FCS, as FCS serves as an exogenous source of LDH.[22]
(§2) Cytotoxic effects of glab, licoA, and glycy were assessed by measuring leakage of intracellular lactate dehydrogenase (LDH) in the supernatant and analyzed using an LDH cytotoxicity detection kit (Roche Applied Science, Almere, The Netherlands), according to the manufacturer’s instructions. The LDH activity in the supernatant was expressed as the percentage of the maximum releasable LDH in enteroids or Caco-2 cells (enteroids or Caco-2 cells treated with 1% (v/v) Triton X-100) and calculated with eq 1. [drawing 1] 1 in which exp. value is the UV absorbance at 492 nm (Tecan Spark or Tecan Infinite 200 Pro, Tecan Group Ltd., Zürich, Switzerland), background control is the medium with corresponding concentration of glab, licoA, or glycy, and high control is the maximum releasable LDH in enteroids or Caco-2 cells. For enteroids, each well was used as its own positive control by taking the total releasable LDH of each well after incubation.

[3] = tested on: human ileal apical-in enteroids; assay: Cytotoxicity by LDH leakage assay in apical-in enteroids; assay type: cell-based; conditions: 4 h, cutoff 25% vs negative control
Experimental: as §1, §2

[4] = tested on: human CYP enzymes (i.e., CYP3A4); design: method as in PMID 17220245, PMID 28774812, PMID 12019199, PMID 26100226; conditions: cited from earlier work
[5] = tested on: human apical-in ileal enteroids; assay: Biotransformation in apical-in ileal enteroids (RP-UHPLC-PDA-MSn); assay type: in vitro ADME; conditions: for biotransformation products formed: identified at the basolateral side; for phase I metabolites: up to 24 h incubation
Experimental: (§3) Biotransformation of glab, licoA, and glycy in apical-out and apical-in enteroids was evaluated after 0, 4, and 24 h of incubation. For this, apical-out enteroids were stimulated with 50 μg mL^–1 (154 μM) glab, or with 100 μg mL^–1 licoA (296 μM), or 100 μg mL^–1 glycy (272 μM), and apical-in enteroids were stimulated with 50 μg mL^–1 glab (154 μM), 50 μg mL^–1 licoA (148 μM), or 50 μg mL^–1 glycy (136 μM). […] For apical-out enteroids, parent compounds and their transformation products were assessed on the enteroids’ apical (facing the medium) and basolateral side (inside the enteroids) and intracellularly. In apical-in enteroids, parent compounds and metabolites were assessed on the basolateral side (facing the medium). For the apical release, apical-out enteroids were pelleted (250g, 3 min, 4 °C), and the supernatant was used for LC-MS analysis, after which the enteroids were washed with PBS. Enteroids in a suspension in fresh PBS were broken up by vigorously pipetting up and down approximately for 20 times, after which enteroids were pelleted and the supernatant was used to determine basolateral release by using LC-MS. Enteroids were washed with PBS, and the enteroids’ cells in fresh PBS were disrupted on ice with a digital sonifier (Branson Ultrasonics Corporation, Danbury, CT, USA) with the following settings: a 5 s pulse, a 10 s pause, an amplitude of 55%, and 12 cycles. Enteroids were pelleted, and the supernatant was used as a measure for intracellular release and measured with LC-MS.
(§4) Samples were separated on a Thermo Vanquish UHPLC system (Thermo Scientific, San Jose, CA, USA) equipped with a pump, a degasser, an autosampler, and a PDA detector, as described elsewhere.[15] Eluents used were (A) LC-MS-grade MQ + 0.1% FA (v/v) and (B) LC-MS-grade ACN + 0.1% FA (v/v). The elution program was started by running isocratically at 1% B for 1.09 min followed by a 1.09–26.16 min linear gradient to 70% B, a 26.16–27.25 min linear gradient to 100% B, and 27.25–32.70 min isocratically at 100% B. The eluent was adjusted to start conditions in 1.09 min followed by equilibration of 5.45 min.
(§5) Mass spectrometric data were acquired using an LTQ Velos Pro linear ion trap mass spectrometer (Thermo Scientific), equipped with a heated ESI probe coupled in-line to the Vanquish UHPLC system, as described elsewhere.[15] Data were processed using Xcalibur 4.1 (Thermo Scientific).
(§6) Quantification of glab, licoA, glycy, and produced metabolites was based on UV absorbance at 280 nm (glab), 340–390 nm (licoA), and 320–370 nm (glycy). For this, a seven-point calibration (0.01–150 μg mL^–1) curve based on external standards of glab, licoA, and glycy (R^2 > 0.999) was used. UV peaks were integrated using the AVALON integration algorithm with the autocalc function (Xcalibur 4.1). Metabolites were quantified as glab, licoA, or glycy equivalents.

[6] = Stability in the medium without enteroids; assay type: physicochemical; conditions: after 24 h of incubation
Experimental: as §6

[7] = tested on: human ileal apical-out enteroids; assay: Cell viability by WST-1 assay in apical-out enteroids; assay type: cell-based; conditions: 4 h exposure, range 6.25 up to 500 μg mL^–1
Experimental: as §1
(§7) Effects on cell viability after stimulation by glab, licoA, and glycy were assessed by measuring cleavage of the tetrazolium salt WST-1 to formazan catalyzed by cellular mitochondrial dehydrogenases and analyzed using a WST-1 cell viability kit (PromoKine, Heidelberg, Germany), according to the manufacturer’s instructions. Cell viability was expressed as the percentage of the control cells (enteroids or Caco-2 cells grown in a medium) and was calculated with eq 2. [drawing 2] 2 in which exp. value is the UV absorbance at 450 nm (Tecan Spark or Tecan Infinite 200 Pro) and low control is the spontaneous cleavage of WST-1 to formazan by mitochondrial dehydrogenases in untreated enteroids or Caco-2 cells.

[8] = as above; assay type: cell-based, human; conditions: human
Experimental: as §1, §7

[9] = tested on: human apical-out ileal enteroids; assay: Biotransformation in apical-out ileal enteroids (RP-UHPLC-PDA-MSn); assay type: in vitro ADME; conditions: for sulfation (LC-MS analysis): human ileal apical-out and apical-in enteroids; for biotransformation products formed: released on the apical side; for phase I biotransformation products: up to 24 h incubation
Experimental: as §3, §4, §5, §6

Caco-2 cells = assay: Cytotoxicity by LDH leakage assay in Caco-2 cells; assay type: cell-based, human; conditions: proliferating and differentiated Caco-2 cells (differentiated: ref 17), cutoff 25%
Experimental: The human colon adenocarcinoma cell line (Caco-2) was obtained from the American Type Culture Collection (ATCC; Manassas, VA, USA). Caco-2 cells were cultured in DMEM, in a humidified atmosphere of 5% CO2 at 37 °C until 80–90% confluency was reached. Effects on the cytotoxicity and cell viability (Section 2.6) were assessed in proliferating and differentiated Caco-2 cells. The effects on differentiated Caco-2 cells were recently described in our publication.[17] Proliferating and differentiated Caco-2 cells were seeded into 96-well plates at a density of 15,000 cells per cm^2.
Cytotoxicity and effects on cell viability after exposure to glab, licoA, and glycy in apical-out and apical-in enteroids (6.25–500 μg mL^–1) and proliferating Caco-2 cells (3.13–100 μg mL^–1) were determined by LDH leakage (Section 2.6.1) and WST-1 assays (Section 2.6.2), respectively. For this, stock solutions of 50 mg mL^–1 of glab, licoA, and glycy in DMSO were used. […] After 3 days in ODM, the effects on cytotoxicity and cell viability of glab, licoA, and glycy in apical-out and apical-in enteroids (passages between 3 and 17) were assessed after 4 and 24 h of incubation. […]
as §2, with “[drawing 1]” left out, “For enteroids, each well was used as its own positive control by taking the total releasable LDH of each well after incubation.” left out

[10] = tested on: human ileal apical-in enteroids; assay: Cell viability by WST-1 assay in apical-in enteroids; assay type: cell-based; conditions: 4 h
Experimental: Cytotoxicity and effects on cell viability after exposure to glab, licoA, and glycy in apical-out and apical-in enteroids (6.25–500 μg mL^–1) and proliferating Caco-2 cells (3.13–100 μg mL^–1) were determined by LDH leakage (Section 2.6.1) and WST-1 assays (Section 2.6.2), respectively. For this, stock solutions of 50 mg mL^–1 of glab, licoA, and glycy in DMSO were used. […] An overview of the experimental conditions for the exposure experiments with glab, licoA, and glycy is shown in Table S2 (Supporting Information). […] After 3 days in ODM, the effects on cytotoxicity and cell viability of glab, licoA, and glycy in apical-out and apical-in enteroids (passages between 3 and 17) were assessed after 4 and 24 h of incubation. […]
as §7, with “[drawing 2] 2 in which exp. value is the UV absorbance at 450 nm (Tecan Spark or Tecan Infinite 200 Pro) and low control is the spontaneous cleavage of WST-1 to formazan by mitochondrial dehydrogenases in untreated enteroids or Caco-2 cells.” left out
For apical-in enteroids, the cleavage of WST-1 to formazan was assessed in the MG. […]

[11] = tested on: mouse jejunal apical-out enteroids; design: method as in PMID 38086658; conditions: jejunum, cutoff 25%; cited from earlier work
[12] = tested on: mouse jejunal apical-out enteroids; design: method as in PMID 38086658; conditions: jejunum, cutoff 25%; cited from earlier work; remark: listed apart in the source
[13] = tested on: mouse jejunal apical-in enteroids; design: method as in PMID 38086658; conditions: jejunum, cutoff 25%; cited from earlier work

C=CC(C)(C)c1cc(/C=C/C(=O)c2ccc(O)cc2)c(OC)cc1O [licochalcone A]
minimum inhibitory concentration (MIC) (Gram-positive bacteria): 12.5 μg mL^–1
minimum inhibitory concentration (MIC) (Gram-positive bacteria; equivalent of 12.5 μg mL^–1): 37 µM
epithelial barrier (membrane) integrity [1]: did not seem to disrupt
cytotoxicity (LDH) ([2]; 500 μg mL^–1, 4 h exposure, % of maximum releasable LDH): −6 ± 2%
effects on cytotoxicity up to the highest concentrations ([2]; 4 h exposure, up to 500 μg mL^–1, p > 0.05): No significant effects on cytotoxicity
highest nontoxic concentration (LDH) [3]: around 300 μM
inhibition of human CYP enzymes (i.e., CYP3A4) [4]: inhibition
% biotransformation to glucuronide compared to parent at t = 0 h ([5]; 24 h exposure, 50 μg mL^–1, basolateral side): comparably low
biotransformation products formed [5]: transformed to their glucuronides
phase I metabolites [5]: no phase I metabolites were identified
recovery in the medium (without enteroids) [6]: 101 ± 3.2%
cell viability (WST-1), slight decrease, not statistically significant [7]: approximately 80%
viability at 4 h, 500 μg mL^–1 ([8]; apical-out ileal enteroids, 500 μg mL^–1, 4 h exposure, negative control set at 100%, read-out: cell viability (WST-1)): 77 ± 22%
% biotransformation to glucuronide compared to parent at t = 0 h ([9]; 24 h exposure, 100 μg mL^–1 (licoA, glycy), apical side): comparably low
sulfation (LC-MS analysis) [9]: did not reveal sulfation
biotransformation products formed [9]: glucuronide metabolites
phase I biotransformation products [9]: No phase I biotransformation products
highest nontoxic concentration (LDH) (Caco-2 cells): around 75 μM

CC1(C)C=Cc2c(ccc3c2OC[C@@H](c2ccc(O)cc2O)C3)O1 [glabridin]
minimum inhibitory concentration (MIC) (Gram-positive bacteria): 12.5 μg mL^–1
minimum inhibitory concentration (MIC) (Gram-positive bacteria; equivalent of 12.5 μg mL^–1): 39 µM
epithelial barrier (membrane) integrity [1]: did not seem to disrupt
highest nonreducing viability concentration (WST-1) [10]: 100 μg mL^–1
highest noncytotoxic concentration [11]: 250 μg mL^–1
highest nonreducing viability concentration [12]: 50 μg mL^–1
fold higher concentration for significant cytotoxicity in apical-out vs apical-in enteroids ([2]; human): 3-5 fold
highest noncytotoxic concentration [13]: 75 μg mL^–1
highest nontoxic concentration (LDH) ([3]; listed as Glabridin): 100 μg mL^–1
highest nontoxic concentration (LDH) ([3]; listed as glab): around 300 μM
inhibition of human CYP enzymes (i.e., CYP3A4) [4]: inhibition
biotransformation products formed [5]: transformed to their glucuronides
phase I metabolites [5]: no phase I metabolites were identified
recovery in the medium (without enteroids) [6]: 101 ± 2.2%
viability at 4 h, 500 μg mL^–1 [8]: 21 ± 14%
viability at 4 h, 771 µM [8]: 29%
sulfation (LC-MS analysis) [9]: did not reveal sulfation
biotransformation products formed [9]: glucuronide metabolites
phase I biotransformation products [9]: No phase I biotransformation products
highest nontoxic concentration (LDH) (Caco-2 cells): around 75 μM
